Measurements taken from patent US9969694B2, “N-(arylalkyl)-N′-pyrazolyl-urea, thiourea, guanidine and cyanoguanidine compounds as TrkA kinase inhibitors” (Array BioPharma Inc., priority 2012, dated 2018).

Experiments:
[1] = biological target: T1, His-tagged recombinant human TrkA (Homo sapiens, UniProt P04629); assay: TrkA Kinase Binding Assay (LanthaScreen Eu); conditions: averaged IC50; TR-FRET binding, 60 min, 22° C.; read-out: TrkA Enzyme IC50
T1 construct: 6HIS tagged cytoplasmic domain from Invitrogen, Catalog No. PV3144; purchased Invitrogen PV3144
T1 sequence (P04629 440-796 limits assumed): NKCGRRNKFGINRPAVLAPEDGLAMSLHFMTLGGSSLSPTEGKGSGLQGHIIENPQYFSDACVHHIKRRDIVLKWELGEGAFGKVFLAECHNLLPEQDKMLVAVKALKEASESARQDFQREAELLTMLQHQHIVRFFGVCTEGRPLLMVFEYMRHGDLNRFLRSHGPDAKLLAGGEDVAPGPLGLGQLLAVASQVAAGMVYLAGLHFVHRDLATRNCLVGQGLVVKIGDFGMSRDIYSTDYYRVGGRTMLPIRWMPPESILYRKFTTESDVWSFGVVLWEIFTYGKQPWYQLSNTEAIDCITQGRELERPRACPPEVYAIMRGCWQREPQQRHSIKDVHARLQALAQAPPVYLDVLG
How it was run: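 TR-FRET tracer displacement: 5 nM His-tagged TrkA cytoplasmic domain with 4 nM Tracer 236, biotinylated anti-His and Eu-streptavidin in pH 7.5 MOPS buffer, 2% DMSO, 60 min at 22 °C. 665/615 nm emission ratio gave percent of control; IC50 from four-parameter fit.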

[2] = biological target: T2, BLK_m (Mus musculus, UniProt P16277); assay: Off-Target Kinase Profiling; type: biochemical; conditions: 10 μM; ATP near Km
T2 construct: purchased Millipore (KinaseProfiler service)
How it was run: (§1)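 Profiling uses one compound concentration (10 μM) and ATP adjusted to approximately each kinase's Km. Duplicate measurements are averaged and expressed as percent of the uninhibited control.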

[3] = biological target: T3, BrSK2 (Homo sapiens, UniProt Q8IWQ3); assay: Off-Target Kinase Profiling; type: biochemical; conditions: 10 μM; ATP near Km
T3 construct: purchased Millipore (KinaseProfiler service)
How it was run: as §1

[4] = biological target: T4, CDK9/cyclinT1 (Homo sapiens, UniProt P50750); assay: Off-Target Kinase Profiling; type: biochemical; conditions: 10 μM; ATP near Km
T4 construct: purchased Millipore, Inc. (KinaseProfiler service)
How it was run: as §1

[5] = biological target: T5, CK2 (Homo sapiens, UniProt P68400); assay: Off-Target Kinase Profiling; type: biochemical; conditions: 10 μM; ATP near Km
T5 construct: purchased Millipore, Inc. (KinaseProfiler service)
How it was run: as §1

[6] = biological target: T6, DAPK3 (Homo sapiens, UniProt O43293); assay: Off-Target Kinase Profiling; type: biochemical; conditions: 10 μM; ATP near Km
T6 construct: purchased Millipore, Inc. (KinaseProfiler service)
How it was run: as §1

[7] = biological target: T7, EphA7 (Homo sapiens, UniProt Q15375); assay: Off-Target Kinase Profiling; type: biochemical; conditions: 10 μM; ATP near Km
T7 construct: purchased Millipore, Inc. (KinaseProfiler service)
How it was run: as §1

[8] = biological target: T8, HIPK3 (Homo sapiens, UniProt Q9H422); assay: Off-Target Kinase Profiling; type: biochemical; conditions: 10 μM; ATP near Km
T8 construct: purchased Millipore, Inc. (KinaseProfiler service)
T8 sequence (Q9H422 whole entry): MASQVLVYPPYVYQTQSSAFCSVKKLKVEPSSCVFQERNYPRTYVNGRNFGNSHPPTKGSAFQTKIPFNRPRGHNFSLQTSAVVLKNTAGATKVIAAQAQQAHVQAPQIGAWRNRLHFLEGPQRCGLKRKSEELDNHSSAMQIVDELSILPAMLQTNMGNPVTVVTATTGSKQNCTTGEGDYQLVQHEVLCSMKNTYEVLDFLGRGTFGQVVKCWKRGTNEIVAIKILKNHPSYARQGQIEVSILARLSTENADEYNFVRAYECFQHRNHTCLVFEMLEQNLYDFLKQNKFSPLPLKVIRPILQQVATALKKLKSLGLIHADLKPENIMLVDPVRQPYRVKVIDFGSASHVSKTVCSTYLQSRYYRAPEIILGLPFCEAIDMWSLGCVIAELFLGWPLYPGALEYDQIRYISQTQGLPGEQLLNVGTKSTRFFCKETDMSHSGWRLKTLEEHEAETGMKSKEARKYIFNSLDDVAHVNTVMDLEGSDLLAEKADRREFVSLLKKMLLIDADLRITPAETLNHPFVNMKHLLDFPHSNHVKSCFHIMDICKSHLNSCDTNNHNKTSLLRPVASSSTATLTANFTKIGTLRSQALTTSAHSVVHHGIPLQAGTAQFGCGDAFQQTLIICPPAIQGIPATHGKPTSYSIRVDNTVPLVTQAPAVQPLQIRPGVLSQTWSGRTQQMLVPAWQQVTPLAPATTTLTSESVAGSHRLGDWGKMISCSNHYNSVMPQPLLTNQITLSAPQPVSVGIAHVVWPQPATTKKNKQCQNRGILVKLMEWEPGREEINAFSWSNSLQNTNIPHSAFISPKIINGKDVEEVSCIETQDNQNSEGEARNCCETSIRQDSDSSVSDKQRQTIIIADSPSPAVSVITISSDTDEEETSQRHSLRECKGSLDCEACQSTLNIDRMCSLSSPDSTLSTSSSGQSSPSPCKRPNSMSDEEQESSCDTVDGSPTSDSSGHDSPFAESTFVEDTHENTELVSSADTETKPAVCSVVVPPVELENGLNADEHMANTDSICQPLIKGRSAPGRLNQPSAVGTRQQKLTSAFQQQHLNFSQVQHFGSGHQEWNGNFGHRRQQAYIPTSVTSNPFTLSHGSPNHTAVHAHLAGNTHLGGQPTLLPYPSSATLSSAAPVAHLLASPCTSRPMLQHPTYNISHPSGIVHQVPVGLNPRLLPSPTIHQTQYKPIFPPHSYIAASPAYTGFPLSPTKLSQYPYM
How it was run: as §1

[9] = biological target: T9, IGF-1R Activated (Homo sapiens, UniProt P08069); assay: Off-Target Kinase Profiling; type: biochemical; conditions: 10 μM; ATP near Km
T9 construct: purchased Millipore, Inc. (KinaseProfiler service)
T9 sequence (P08069 959-1367 limits assumed): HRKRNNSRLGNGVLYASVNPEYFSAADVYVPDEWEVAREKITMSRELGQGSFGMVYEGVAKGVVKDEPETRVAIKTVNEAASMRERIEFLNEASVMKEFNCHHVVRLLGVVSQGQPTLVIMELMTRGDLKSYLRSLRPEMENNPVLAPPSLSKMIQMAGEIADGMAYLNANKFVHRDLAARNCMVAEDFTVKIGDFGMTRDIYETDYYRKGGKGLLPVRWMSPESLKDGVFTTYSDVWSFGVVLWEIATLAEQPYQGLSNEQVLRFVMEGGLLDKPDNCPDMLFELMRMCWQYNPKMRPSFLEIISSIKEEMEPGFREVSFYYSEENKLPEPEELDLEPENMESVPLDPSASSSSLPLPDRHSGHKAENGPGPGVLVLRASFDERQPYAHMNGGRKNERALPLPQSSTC
How it was run: as §1

[10] = biological target: T10, IR Activated (Homo sapiens, UniProt P06213); assay: Off-Target Kinase Profiling; type: biochemical; conditions: 10 μM; ATP near Km
T10 construct: purchased Millipore, Inc. (KinaseProfiler service)
T10 sequence (P06213 1005-1310 limits assumed): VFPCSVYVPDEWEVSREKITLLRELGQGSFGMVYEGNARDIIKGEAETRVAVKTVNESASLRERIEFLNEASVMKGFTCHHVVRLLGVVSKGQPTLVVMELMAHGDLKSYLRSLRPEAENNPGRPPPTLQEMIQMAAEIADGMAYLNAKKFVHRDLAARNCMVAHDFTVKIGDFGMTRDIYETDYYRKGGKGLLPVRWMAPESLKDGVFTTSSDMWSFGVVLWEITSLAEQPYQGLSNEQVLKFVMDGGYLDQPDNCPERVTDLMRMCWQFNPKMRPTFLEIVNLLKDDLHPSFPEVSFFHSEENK
How it was run: as §1

[11] = biological target: T11, JAK3 (Homo sapiens, UniProt P52333); assay: Off-Target Kinase Profiling; type: biochemical; conditions: 10 μM; ATP near Km
T11 construct: purchased Millipore, Inc. (KinaseProfiler service)
T11 sequence (P52333 whole entry): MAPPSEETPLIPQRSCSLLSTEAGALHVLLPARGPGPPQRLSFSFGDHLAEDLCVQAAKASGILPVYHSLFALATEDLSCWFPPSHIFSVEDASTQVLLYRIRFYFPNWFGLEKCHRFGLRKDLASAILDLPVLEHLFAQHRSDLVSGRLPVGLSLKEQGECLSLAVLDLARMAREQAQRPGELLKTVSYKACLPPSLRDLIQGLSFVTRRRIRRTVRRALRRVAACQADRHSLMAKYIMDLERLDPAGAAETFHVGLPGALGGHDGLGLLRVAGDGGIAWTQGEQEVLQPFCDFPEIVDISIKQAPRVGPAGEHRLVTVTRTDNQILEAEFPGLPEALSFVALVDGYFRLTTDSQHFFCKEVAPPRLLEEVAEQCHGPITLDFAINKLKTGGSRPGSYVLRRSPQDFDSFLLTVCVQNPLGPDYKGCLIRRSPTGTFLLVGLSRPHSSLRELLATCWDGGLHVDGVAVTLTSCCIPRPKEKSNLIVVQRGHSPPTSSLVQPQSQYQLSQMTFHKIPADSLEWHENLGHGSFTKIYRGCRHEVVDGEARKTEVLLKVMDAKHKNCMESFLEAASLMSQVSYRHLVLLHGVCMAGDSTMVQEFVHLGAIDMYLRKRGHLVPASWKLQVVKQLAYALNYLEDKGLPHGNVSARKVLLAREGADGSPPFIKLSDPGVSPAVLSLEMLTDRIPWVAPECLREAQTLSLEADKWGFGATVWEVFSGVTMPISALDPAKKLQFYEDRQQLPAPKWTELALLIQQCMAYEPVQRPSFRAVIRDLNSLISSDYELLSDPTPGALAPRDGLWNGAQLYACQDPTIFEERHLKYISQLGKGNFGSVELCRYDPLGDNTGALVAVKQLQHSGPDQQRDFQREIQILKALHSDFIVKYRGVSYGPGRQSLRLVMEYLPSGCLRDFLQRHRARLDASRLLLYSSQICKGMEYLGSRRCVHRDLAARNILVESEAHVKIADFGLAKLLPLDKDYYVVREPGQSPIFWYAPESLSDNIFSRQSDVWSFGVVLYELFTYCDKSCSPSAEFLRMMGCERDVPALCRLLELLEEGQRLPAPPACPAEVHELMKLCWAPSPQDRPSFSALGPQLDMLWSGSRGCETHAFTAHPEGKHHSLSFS
How it was run: as §1

[12] = biological target: T12, Lyn (Homo sapiens, UniProt P07948); assay: Off-Target Kinase Profiling; type: biochemical; conditions: 10 μM; ATP near Km
T12 construct: purchased Millipore, Inc. (KinaseProfiler service)
How it was run: as §1

[13] = biological target: T13, MSK2 (Homo sapiens, UniProt O75676); assay: Off-Target Kinase Profiling; type: biochemical; conditions: 10 μM; ATP near Km
T13 construct: purchased Millipore, Inc. (KinaseProfiler service)
How it was run: as §1

[14] = biological target: T14, PAK2 (Homo sapiens, UniProt Q13177); assay: Off-Target Kinase Profiling; type: biochemical; conditions: 10 μM; ATP near Km
T14 construct: purchased Millipore, Inc. (KinaseProfiler service)
T14 sequence (Q13177 whole entry): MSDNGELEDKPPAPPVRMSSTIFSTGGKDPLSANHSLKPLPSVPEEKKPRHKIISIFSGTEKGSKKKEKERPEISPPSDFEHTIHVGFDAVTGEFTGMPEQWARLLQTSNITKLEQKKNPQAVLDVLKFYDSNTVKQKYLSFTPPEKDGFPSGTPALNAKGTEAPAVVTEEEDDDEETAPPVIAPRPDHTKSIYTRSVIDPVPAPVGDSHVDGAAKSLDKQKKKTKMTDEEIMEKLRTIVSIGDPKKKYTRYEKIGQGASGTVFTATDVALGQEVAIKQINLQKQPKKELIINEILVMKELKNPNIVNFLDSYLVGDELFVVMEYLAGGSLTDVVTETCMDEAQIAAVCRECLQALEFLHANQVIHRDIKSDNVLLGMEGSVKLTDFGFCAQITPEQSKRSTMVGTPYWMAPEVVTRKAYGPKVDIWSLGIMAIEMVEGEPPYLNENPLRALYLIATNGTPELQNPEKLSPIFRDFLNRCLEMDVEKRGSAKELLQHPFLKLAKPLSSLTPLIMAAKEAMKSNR
How it was run: as §1

[15] = biological target: T15, PAK4 (Homo sapiens, UniProt O96013); assay: Off-Target Kinase Profiling; type: biochemical; conditions: 10 μM; ATP near Km
T15 construct: purchased Millipore, Inc. (KinaseProfiler service)
How it was run: as §1

[16] = biological target: T16, PAK6 (Homo sapiens, UniProt Q9NQU5); assay: Off-Target Kinase Profiling; type: biochemical; conditions: 10 μM; ATP near Km
T16 construct: purchased Millipore, Inc. (KinaseProfiler service)
How it was run: as §1

[17] = biological target: T17, PTK6 (Homo sapiens, UniProt Q13882); assay: Off-Target Kinase Profiling; type: biochemical; conditions: 10 μM; ATP near Km
T17 construct: purchased Millipore, Inc. (KinaseProfiler service)
How it was run: as §1

[18] = biological target: T18, Ros (Homo sapiens, UniProt P08922); assay: Off-Target Kinase Profiling; type: biochemical; conditions: 10 μM; ATP near Km
T18 construct: purchased Millipore, Inc. (KinaseProfiler service)
How it was run: as §1

[19] = biological target: T19, Rse (Homo sapiens, UniProt Q06418); assay: Off-Target Kinase Profiling; type: biochemical; conditions: 10 μM; ATP near Km
T19 construct: purchased Millipore, Inc. (KinaseProfiler service)
T19 sequence (Q06418 41-890): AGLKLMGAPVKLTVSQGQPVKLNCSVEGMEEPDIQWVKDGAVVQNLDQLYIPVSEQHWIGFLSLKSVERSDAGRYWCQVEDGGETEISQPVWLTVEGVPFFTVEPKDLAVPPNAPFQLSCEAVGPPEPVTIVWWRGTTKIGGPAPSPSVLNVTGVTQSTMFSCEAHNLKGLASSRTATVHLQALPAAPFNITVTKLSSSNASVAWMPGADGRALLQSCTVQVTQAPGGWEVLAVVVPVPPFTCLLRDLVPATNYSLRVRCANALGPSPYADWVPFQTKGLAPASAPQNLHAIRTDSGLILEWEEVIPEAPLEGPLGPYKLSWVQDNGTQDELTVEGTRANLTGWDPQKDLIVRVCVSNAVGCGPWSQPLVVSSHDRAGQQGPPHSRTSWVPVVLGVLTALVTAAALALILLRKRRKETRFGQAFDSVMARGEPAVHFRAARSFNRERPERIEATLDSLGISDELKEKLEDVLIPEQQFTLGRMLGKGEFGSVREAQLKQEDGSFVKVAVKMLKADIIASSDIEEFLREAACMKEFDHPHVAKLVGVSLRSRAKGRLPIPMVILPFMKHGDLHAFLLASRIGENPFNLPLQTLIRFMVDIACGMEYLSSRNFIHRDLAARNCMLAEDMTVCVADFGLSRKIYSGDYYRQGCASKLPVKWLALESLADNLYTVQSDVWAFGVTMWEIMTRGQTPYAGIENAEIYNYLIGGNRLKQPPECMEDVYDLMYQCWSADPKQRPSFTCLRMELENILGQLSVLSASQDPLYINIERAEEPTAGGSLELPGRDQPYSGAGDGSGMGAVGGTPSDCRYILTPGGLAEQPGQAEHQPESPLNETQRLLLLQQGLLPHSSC
How it was run: as §1

[20] = biological target: T20, SGK2 (Homo sapiens, UniProt Q9HBY8); assay: Off-Target Kinase Profiling; type: biochemical; conditions: 10 μM; ATP near Km
T20 construct: purchased Millipore, Inc. (KinaseProfiler service)
How it was run: as §1

[21] = biological target: T21, SGK3 (Homo sapiens, UniProt Q96BR1); assay: Off-Target Kinase Profiling; type: biochemical; conditions: 10 μM; ATP near Km
T21 construct: purchased Millipore, Inc. (KinaseProfiler service)
How it was run: as §1

[22] = biological target: T22, TBK1 (Homo sapiens, UniProt Q9UHD2); assay: Off-Target Kinase Profiling; type: biochemical; conditions: 10 μM; ATP near Km
T22 construct: purchased Millipore, Inc. (KinaseProfiler service)
How it was run: as §1

[23] = biological target: T23, mTOR/FKBP12 (Homo sapiens, UniProt P42345); assay: Off-Target Kinase Profiling; type: biochemical; conditions: 10 μM; ATP near Km
T23 construct: purchased Millipore, Inc. (KinaseProfiler service)
How it was run: as §1

[24] = biological target: T24, p38alpha (Homo sapiens, UniProt Q16539); assay: Off-Target Kinase Profiling; type: biochemical; conditions: 10 μM; ATP near Km
T24 construct: purchased Millipore, Inc. (KinaseProfiler service)
How it was run: as §1

IC50 [1] | Avg POC BLK_m [2] | Avg POC BrSK2 [3] | Avg POC CDK9/cyclinT1 [4] | Avg POC CK2 [5] | Avg POC DAPK3 [6] | Avg POC EphA7 [7] | Avg POC HIPK3 [8] | Avg POC IGF-1R Activated [9] | Avg POC IR Activated [10] | Avg POC JAK3 [11] | Avg POC Lyn [12] | Avg POC MSK2 [13] | Avg POC PAK2 [14] | Avg POC PAK4 [15] | Avg POC PAK6 [16] | Avg POC PTK6 [17] | Avg POC Ros [18] | Avg POC Rse [19] | Avg POC SGK2 [20] | SMILES | also measured
< 100 nM | 97.5 POC | 95 POC | 98 POC | 94.5 POC | 93.5 POC | 92.5 POC | 95.5 POC | 93.5 POC | 99 POC | 94.5 POC | 86 POC | 110.5 POC | 88 POC | 102.5 POC | 95.5 POC | 106.5 POC | 97.5 POC | 103 POC | 80.5 POC | COCc1ccc(C2CCC2)c(CNC(=O)Nc2c(C)c(-c3cnc(C)nc3)nn2-c2ccccc2)c1 [Example 10, 1-(2-cyclobutyl-5-(methoxymethyl)benzyl)-3-(4-methyl-3-(2-methylpyrimidin-5-yl)-1-phenyl-1H-pyrazol-5-yl)urea] | Avg POC SGK3 [21]: 92.5 POC; Avg POC TBK1 [22]: 104.5 POC; Avg POC mTOR/FKBP12 [23]: 97.5 POC; Avg POC p38alpha [24]: 91.5 POC
< 100 nM | 119 POC | 145.5 POC | 108 POC | 94.5 POC | 113 POC | 94.5 POC | 102 POC | 86.5 POC | 103.5 POC | 114 POC | 104.5 POC | 207.5 POC | 89.5 POC | 108.5 POC | 147.5 POC | 118.5 POC | 100.5 POC | 110 POC | 208 POC | COCc1ccc(C(F)(F)F)c(CNC(=O)Nc2c(C)c(-c3cnn(C)c3)nn2-c2ccccc2)c1 [Example 33, 1-(1′,4-dimethyl-1-phenyl-1H,1′H-[3,4′-bipyrazol]-5-yl)-3-(5-(methoxymethyl)-2-(trifluoromethyl)benzyl)urea] | Avg POC SGK3 [21]: 150 POC; Avg POC TBK1 [22]: 105.5 POC; Avg POC mTOR/FKBP12 [23]: 109.5 POC; Avg POC p38alpha [24]: 88.5 POC
